Reference: patent US9724352B2, “Pyrrolo[2,1-F[1,2,4]triazine compounds, preparation methods and applications thereof” (Shanghai Institute of Materia Medica, Chinese Academy of …, priority 2012, dated 2017)

Columns and labels:
[1] = test system: LG-NCI-H460; assay: Proliferation of human cancer cell panel; format: cell-based; conditions: read-out: inhibitory activity on proliferation
Text: (§1) I-30 and I-33 were selected to test their activity on the proliferation of human cancer cells originated from different tissue types.

[2] = test system: colon cancer cells C-HCT-116; assay: Proliferation of human cancer cell panel; format: cell-based; conditions: read-out: inhibitory activity on proliferation
Text: as §1

[3] = test system: gastric cancer cells G-MKN-45; assay: Proliferation of human cancer cell panel; format: cell-based; conditions: read-out: inhibitory activity on proliferation
Text: as §1

[4] = test system: hepatoma cells L-BEL-7402; assay: Proliferation of human cancer cell panel; format: cell-based; conditions: read-out: inhibitory activity on proliferation
Text: as §1

[5] = test system: P-PC-3; assay: Proliferation of human cancer cell panel; format: cell-based; conditions: read-out: inhibitory activity on proliferation
Text: as §1

[6] = test system: O-SKOV-3; assay: Proliferation of human cancer cell panel; format: cell-based; conditions: read-out: inhibitory activity on proliferation
Text: as §1

[7] = test system: LG-NCI-H23; assay: Proliferation of human cancer cell panel; format: cell-based; conditions: read-out: inhibitory activity on proliferation
Text: as §1

[8] = test system: rhabdomyosarcoma cells S-RH30; assay: Proliferation of human cancer cell panel; format: cell-based; conditions: read-out: inhibitory activity on proliferation
Text: as §1

[9] = test system: B-BT474; assay: Proliferation of human cancer cell panel; format: cell-based; conditions: read-out: inhibitory activity on proliferation
Text: as §1

[10] = test system: endometrial cancer cells E-RL95-2; assay: Proliferation of human cancer cell panel; format: cell-based; conditions: read-out: inhibitory activity on proliferation
Text: as §1

[11] = test system: colorectal cancer cells C-LOVO; assay: Proliferation of human cancer cell panel; format: cell-based; conditions: read-out: inhibitory activity on proliferation
Text: as §1

[12] = test system: PI3K signaling in human rhabdomyosarcoma Rh30 cells; assay: PI3K signaling after IGF-1 stimulation (Western blot), Rh30; format: cell-based; conditions: compound 1 h, IGF-1 10 minutes
Protocol: (§2) Rh30 and U87MG cells were seeded in 12-well plates at 2×10^5 cells/well. On the next day, cells were incubated in fresh serum-free culture media subjected to starvation for 24 hours. Cells were then treated with different concentrations of compound I-33 for 1 h. After stimulated with IGF-1 for 10 minutes, the lysed cells were collected, and 4×SDS loading buffer [200 mM Tris.Cl (pH 6.8), 400 mM DTT, 8% SDS (sodium dodecyl sulfate), 0.4% bromophenol blue, 40% glycerol] was added. The cell lysates were boiled for 10 minutes. Aliquot was loaded on polyacrylamide gel and electrophoresis was performed in Tris-glycine electrophoresis buffer (25 mM Tris, 250 mM glycine, 0.1% SDS) at 80-100 V for 2-2.5 hours. The proteins were transformed from gel to nitrocellulose filter membrane by using semidry method. The filter membrane was blocked with blocking solution containing 5% skim milk powder (5% skim milk powder, 20 mM Tris-HCl (pH 7.2-7.4), 150 mM NaCl, 0.1% (v/v) Tween20) in a shaker at room temperature for 2 hours. Then specific primary antibody was added and hybridized at 4° C. overnight. The membrane was washed by washing buffer [20 mM Tris-HCl (pH 7.2-7.4), 150 mM NaCl, 0.1% (v/v) Tween20] for three times at room temperature, 15 minutes each time. […]

[13] = test system: human esophagus cancer KYSE 410 xenograft; assay: Growth of KYSE 410 xenograft subcutaneously transplanted in nude mouse; format: in vivo; conditions: for Relative tumor proliferation rate T/C: 50 mg/kg p.o. once every day
Protocol: Well-developed tumors in nude mice were cut into 1.5 mm3 fragments and transplanted s.c. into the right flank of nude mice under sterile conditions. The diameters of subcutaneously transplanted tumours in nude mice were measured with a vernier calipe. When the tumour reached a volume 170 mm3, the mice were randomly assigned into two treatment groups: CYH33 50 mg/kg group or BYL-719 50 mg/kg group. Control groups were given the same amount of normal saline, and treatment groups received tested compounds (p.o). Compounds were administered orally once every day for 3 weeks. Evaluation index of antitumor activity was relative tumor proliferation rate T/C (%), the calculation formula of which was as follows: T/C (%)=(TRTV/CRTV)×100%, TRTV:RTV of treatment group; CRTV:RTV of negative control group.

[14] = test system: human rhabdomyosarcoma Rh30 cells; assay: Proliferation of Rh30 cells (sulforhodamine B); format: cell-based; conditions: Homo sapiens, Rh30, 72 h; read-out: IC50 against proliferation of Rh30 cells
Procedure, shortened: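 Rh30 cells (3000/well) were treated after adherence with compound at 10, 3, 1, 0.3 or 0.1 μM for 72 h. TCA-fixed cells were stained with sulforhodamine B, dye solubilised in Tris buffer and OD read at 560 nm.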

[15] = biological target: PI3Kα (Homo sapiens (Human), UniProt P42336); assay: Inhibition on PI3K kinase activity (Kinase-Glo Plus luminescent assay); format: biochemical; conditions: 2 μM ATP, 1 hour at room temperature
Protocol: The activity of purified kinase was detected with Kinase-Glo® Plus kinase luminescent assay by measuring the amount of the remaining […] in the solution after the kinase reaction was completed. […] After reaction was performed for 1 hour at room temperature, 10 μL of Kinase Glo-Plus mixture was added and incubated for 1 hour to quench the reaction.

[16] = test system: PI3K signaling in human glioma U87MG cells; assay: PI3K signaling after IGF-1 stimulation (Western blot), U87MG; format: cell-based; conditions: compound 1 h, IGF-1 10 minutes
Protocol: as §2

[17] = test system: KYSE30; assay: Proliferation of human esophagus cancer cells; format: cell-based
Text: (§3) Compounds BYL719 (shown below), CYH33 (compound I-33) and I-27 were selected to test their activity on the proliferation of 11 species of human esophagus cancer cells.
(§4) The results reported in FIG. 3 were the average GI50 value and SD value of three experiments. The results were arranged according to the GI50 value of CYH33.

[18] = test system: KYSE180; assay: Proliferation of human esophagus cancer cells; format: cell-based
Text: as §3, §4

[19] = test system: KYSE410; assay: Proliferation of human esophagus cancer cells; format: cell-based
Text: as §3, §4

[20] = test system: KYSE2; assay: Proliferation of human esophagus cancer cells; format: cell-based
Text: as §3, §4

PI3Kα, sequence (P42336 whole entry): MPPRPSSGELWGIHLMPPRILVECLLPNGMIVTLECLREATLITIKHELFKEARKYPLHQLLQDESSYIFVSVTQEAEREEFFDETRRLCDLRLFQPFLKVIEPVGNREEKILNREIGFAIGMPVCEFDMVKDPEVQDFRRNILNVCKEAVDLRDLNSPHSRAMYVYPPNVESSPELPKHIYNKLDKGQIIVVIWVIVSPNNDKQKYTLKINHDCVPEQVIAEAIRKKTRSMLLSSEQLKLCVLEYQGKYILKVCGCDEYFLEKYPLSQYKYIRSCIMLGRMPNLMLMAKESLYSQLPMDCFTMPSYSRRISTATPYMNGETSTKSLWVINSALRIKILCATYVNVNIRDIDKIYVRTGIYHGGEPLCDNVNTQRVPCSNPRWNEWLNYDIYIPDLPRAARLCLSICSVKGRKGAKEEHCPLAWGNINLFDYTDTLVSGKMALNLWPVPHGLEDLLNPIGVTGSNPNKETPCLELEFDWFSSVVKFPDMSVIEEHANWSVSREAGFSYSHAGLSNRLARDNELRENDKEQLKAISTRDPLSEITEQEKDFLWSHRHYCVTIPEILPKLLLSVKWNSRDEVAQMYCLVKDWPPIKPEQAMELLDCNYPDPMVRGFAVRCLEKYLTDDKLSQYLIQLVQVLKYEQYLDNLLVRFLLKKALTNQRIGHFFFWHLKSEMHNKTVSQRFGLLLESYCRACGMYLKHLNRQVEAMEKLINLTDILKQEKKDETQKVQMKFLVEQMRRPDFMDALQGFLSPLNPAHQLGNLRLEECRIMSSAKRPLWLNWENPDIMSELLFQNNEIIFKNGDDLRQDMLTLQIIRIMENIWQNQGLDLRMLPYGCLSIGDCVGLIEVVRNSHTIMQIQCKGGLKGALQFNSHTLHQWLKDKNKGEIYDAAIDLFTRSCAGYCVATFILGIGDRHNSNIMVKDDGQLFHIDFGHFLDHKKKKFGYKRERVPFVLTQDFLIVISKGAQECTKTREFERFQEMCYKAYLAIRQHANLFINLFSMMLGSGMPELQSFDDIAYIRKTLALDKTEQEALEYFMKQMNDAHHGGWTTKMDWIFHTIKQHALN
PI3Kα, sequence (P27986 whole entry partner): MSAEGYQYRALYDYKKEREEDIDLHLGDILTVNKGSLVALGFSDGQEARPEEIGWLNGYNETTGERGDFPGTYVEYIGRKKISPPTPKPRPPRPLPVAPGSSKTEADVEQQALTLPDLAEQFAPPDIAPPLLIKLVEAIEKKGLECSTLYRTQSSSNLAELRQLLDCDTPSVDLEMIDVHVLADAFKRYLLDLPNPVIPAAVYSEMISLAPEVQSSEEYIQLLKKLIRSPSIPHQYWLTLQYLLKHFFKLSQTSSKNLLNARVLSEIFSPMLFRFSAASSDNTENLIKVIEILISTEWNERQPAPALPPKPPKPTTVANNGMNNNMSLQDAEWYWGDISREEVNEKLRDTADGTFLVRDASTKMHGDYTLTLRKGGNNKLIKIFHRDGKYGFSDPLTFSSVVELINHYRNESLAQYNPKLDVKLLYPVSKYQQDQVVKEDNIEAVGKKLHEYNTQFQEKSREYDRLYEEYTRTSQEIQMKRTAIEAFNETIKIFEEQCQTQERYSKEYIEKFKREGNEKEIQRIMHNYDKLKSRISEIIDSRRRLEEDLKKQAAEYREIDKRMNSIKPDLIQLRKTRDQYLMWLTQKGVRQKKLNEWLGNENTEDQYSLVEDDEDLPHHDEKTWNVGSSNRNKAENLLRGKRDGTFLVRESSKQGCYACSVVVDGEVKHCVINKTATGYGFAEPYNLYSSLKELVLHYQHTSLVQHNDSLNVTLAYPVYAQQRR

Q: Which IC50 [1] does the source give for `COC(=O)Nc1cc(C(F)(F)F)c(-c2nc(N3CCOCC3)c3cc(CN4CCN(S(C)(=O)=O)CC4)cn3n2)cn1` [Compound I-33, Methyl (5-(6-((4-(methylsulfonyl)piperazin-1-yl)methyl)-4-morpholinopyrrolo[2,1-f][1,2,4]triazin-2-yl)-4-(trifluoromethyl)pyridin-2-yl)carbamate] here?
A: 1520 nM

Q: What about the IC50 [2] of the same compound?
A: 10000 nM

Q: What about the IC50 [3] of the same compound?
A: 3400 nM

Q: And the IC50 [4]?
A: 4900 nM

Q: What about the IC50 [5] of the same compound?
A: 1580 nM

Q: What about the IC50 [6] of the same compound?
A: 277 nM

Q: What about the IC50 [7] of the same compound?
A: 730 nM

Q: What about the IC50 [8] of the same compound?
A: 486 nM

Q: What about the IC50 [9] of the same compound?
A: 62 nM

Q: And the IC50 [10]?
A: 5300 nM

Q: What about the IC50 [11] of the same compound?
A: 1330 nM

Q: And the “transduction of PI3K signaling” value [12]?
A: significantly inhibited

Q: What about the “growth of KYSE 410 xenograft (in words)” value ([13]; 50 mg/kg p.o. every day for 3 weeks) of the same compound?
A: significantly slowed down

Q: What about the “Relative tumor proliferation rate T/C” value ([13]; d0) of the same compound?
A: 100.00%

Q: And the “Relative tumor proliferation rate T/C” value ([13]; d3)?
A: 65.56%

Q: And the “Relative tumor proliferation rate T/C” value ([13]; d7)?
A: 30.11%

Q: And the “Relative tumor proliferation rate T/C” value ([13]; d10)?
A: 25.23%

Q: And the “Relative tumor proliferation rate T/C” value ([13]; d14)?
A: 13.79%

Q: And the “Relative tumor proliferation rate T/C” value ([13]; d17)?
A: 10.51%

Q: What about the “Relative tumor proliferation rate T/C” value ([13]; d21) of the same compound?
A: 9.13%

Q: What about the IC50 [14] of the same compound?
A: 2520 nM

Q: And the IC50 [15]?
A: 2.84 nM

Q: What about the “transduction of PI3K signaling” value [16] of the same compound?
A: significantly inhibited

Q: What about the GI50 ([17]; KYSE-30, KYSE30, 1st experiment) of the same compound?
A: 2640 nM

Q: And the GI50 ([17]; KYSE-30, KYSE30, 2nd experiment)?
A: 566 nM

Q: What about the GI50 ([17]; KYSE-30, KYSE30, 3rd experiment) of the same compound?
A: 531 nM

Q: What about the GI50 ([17]; KYSE-30, KYSE30, mean of three experiments) of the same compound?
A: 1250 nM

Q: And the GI50 ([18]; KYSE-180, KYSE180, 1st experiment)?
A: 1 nM

Q: What about the GI50 ([18]; KYSE-180, KYSE180, 2nd experiment) of the same compound?
A: 11 nM

Q: And the GI50 ([18]; KYSE-180, KYSE180, 3rd experiment)?
A: 16 nM

Q: What about the GI50 ([18]; KYSE-180, KYSE180, mean of three experiments) of the same compound?
A: 9 nM

Q: And the GI50 ([19]; KYSE-410, KYSE410, 1st experiment)?
A: 146 nM

Q: What about the GI50 ([19]; KYSE-410, KYSE410, 2nd experiment) of the same compound?
A: 50 nM

Q: What about the GI50 ([19]; KYSE-410, KYSE410, 3rd experiment) of the same compound?
A: 88 nM

Q: What about the GI50 ([19]; KYSE-410, KYSE410, mean of three experiments) of the same compound?
A: 95 nM

Q: And the GI50 ([20]; KYSE2, 1st experiment)?
A: 24 nM

Q: And the GI50 ([20]; KYSE2, 2nd experiment)?
A: 28 nM

Q: And the GI50 ([20]; KYSE2, 3rd experiment)?
A: 97 nM

Q: And the GI50 ([20]; KYSE2, mean of three experiments)?
A: 50 nM
